In brackets after ≈: the same amount, converted by molar mass. Where two headings read alike, the source gives them in different places.

The test system of data set [1] is MGC 803 (human gastric cancer cell). The data set can be described thus: Solid tumor cell growth inhibition, MTT, 72 h. Type of data set: cell-based. An excerpt:
(§1) Human solid tumor cell lines: HepG2 (human hepatocellular carcinoma, HCC), A549 (human lung cancer), MCF-7 (breast cancer), PANC-1 (pancreatic, cancer), PC-3 (prostate cancer). MG63 (osteosarcomas). AGS (gastric cancer), Huh7 (human hepatoma cell), Becap37 (human breast cancer cell), Hela (human cervical cancer cell), RKO (human colon adenocarcinoma cell), SW620 (human colon adenocarcinoma cell), SW480 (human colon cancer cell), MGC 803 (human gastric cancer cell). Obtaining 4000 well-growing human solid tumor cells and inoculating them into wells of a 96-well cell culture plate. The culture medium is DMEM High Glucose cell culture medium containing 10% fetal bovine serum. Alter adding the berbamine derivatives of different concentration and mixing uniformly, the plate is placed in a carbon dioxide cell incubator (5% CO2) at 37° C. and incubated for 72 hours. Then the viable cell concentration is determined by the MTT method, and the cell viability (%) alter drug treatment is calculated. In this experiment, the cell viability of control group (not treated with any compound) is set as 100%.

Data set [2] concerns SW620 (human colon adenocarcinoma cell). The data set can be described thus: Solid tumor cell growth inhibition, MTT, 72 h. Type of data set: cell-based. Particulars: SW-620, read-out: half inhibiting concentration (IC50 value) SW620.
Excerpt: as §1

Data set [3] deals with PC-3 (prostate cancer). The data set can be described thus: Solid tumor cell growth inhibition, MTT, 72 h. It is filed as cell-based. Particulars: Homo sapiens, read-out: half inhibiting concentration (IC50 value) PC-3.
Excerpt: as §1

Data set [4] concerns AGS (gastric cancer). Nature of the data set: Solid tumor cell growth inhibition, MTT, 72 h. It is filed as cell-based. Particulars: Homo sapiens, read-out: half inhibiting concentration (IC50 value) AGS.
Excerpt: as §1

Data set [5] has as its system Hela (human cervical cancer cell). Nature of the data set: Solid tumor cell growth inhibition, MTT, 72 h. Type of data set: cell-based. The conditions noted are these: read-out: half inhibiting concentration (IC50 value) Hela.
Excerpt: as §1

Data set [6] has as its system Becap37 (human breast cancer cell). The data set can be described thus: Solid tumor cell growth inhibition, MTT, 72 h. Type of data set: cell-based. Particulars: read-out: half inhibiting concentration (IC50 value) Becap37.
Excerpt: as §1

Data set [7] has as its system SW480 (human colon cancer cell). Nature of the data set: Solid tumor cell growth inhibition, MTT, 72 h. Type of data set: cell-based.
Excerpt: as §1

In data set [8] the test system is HepG2 (human hepatocellular carcinoma, HCC). Nature of the data set: Solid tumor cell growth inhibition, MTT, 72 h. Type of data set: cell-based.
Excerpt: as §1

Data set [9] has as its system PANC-1 (pancreatic cancer). The data set can be described thus: Solid tumor cell growth inhibition, MTT, 72 h. Type of data set: cell-based. The conditions noted are these: Homo sapiens, read-out: half inhibiting concentration (IC50 value) PANC-1.
Excerpt: as §1

The subject of data set [10] is A549 (human lung cancer). The data set can be described thus: Solid tumor cell growth inhibition, MTT, 72 h. It is filed as cell-based.
Excerpt: as §1

Data set [11] relates to Huh7 (human hepatoma cell). Nature of the data set: Solid tumor cell growth inhibition, MTT, 72 h. It is filed as cell-based. The conditions noted are these: Huh-7, read-out: half inhibiting concentration (IC50 value) Huh7.
Excerpt: as §1

The test system of data set [12] is RKO (human colon adenocarcinoma cell). Nature of the data set: Solid tumor cell growth inhibition, MTT, 72 h. Type of data set: cell-based. The conditions noted are these: read-out: half inhibiting concentration (IC50 value) RKO.
Excerpt: as §1

Data set [13] concerns MCF-7 (breast cancer). Nature of the data set: Solid tumor cell growth inhibition, MTT, 72 h. It is filed as cell-based, human.
Excerpt: as §1

Data set [14] relates to MG63 (osteosarcomas). Nature of the data set: Solid tumor cell growth inhibition, MTT, 72 h. Type of data set: cell-based, human.
Excerpt: as §1

The subject of data set [15] is normal human peripheral blood leucocytes. Particulars: 0.5 ug/mL to 10 ug/mL; cited from earlier work.
For data set [16], the system named is RPMI 8226 (multiple myeloma). Nature of the data set: Multiple myeloma cell growth inhibition, MTT, 72 h. Type of data set: cell-based, human. On the procedure:
Multiple myeloma and lymphoma cell lines: RPM18226 (multiple myeloma). Obtaining 6000 well-growing abovesaid tumor cells and inoculating them into wells of a 96-well cell culture plate. The culture medium is the 1640 cell culture medium containing 10% fetal bovine serum. After adding the berbamine derivatives of different concentrations and mixing uniformly, the plate is placed in a carbon dioxide cell incubator (5% CO2) at 37° C. and incubated for 72 hours. Then the viable cell concentration is determined by the MTT method.

Data set [17] relates to human leukemia Jurkat cells. The conditions noted are these: cited from earlier work.
Data set [18] has as its system Kasumi-1 (acute myeloid leukemia M2 type). Nature of the data set: Leukemia cell growth inhibition, MTT, 72 h. Type of data set: cell-based. Particulars: Homo sapiens, read-out: half inhibiting concentration (IC50 value) Kasumi-1. An excerpt:
(§2) Leukemia cell lines; human K562 leukemia cell line (chronic myeloid leukemia, CML), K562/adr (drug-resistant chronic myeloid leukemia (CML), NB4 (acute promyelocytic leukemia, AML), Kasumi-1 (acute myeloid leukemia M2 type, AML-M2), Jurkat (acute lymphoblastic leukemia, ALL), H9 (acute lymphoblastic leukemia, ALL). Obtaining 6000 well-growing leukemia cells and inoculating them into wells of a 96-well cell culture plate. The culture medium is the 1640 cell culture medium containing 10% fetal bovine serum. After adding of the berbamine derivatives of different concentrations and mixing uniformly, the plate is placed in a carbon dioxide cell incubator (5% CO2) at 37° C. and incubated for 72 hours. Then the viable cell concentration is determined by the MTT method.

Data set [19] concerns NB4 (acute promyelocytic leukemia, AML). The data set can be described thus: Leukemia cell growth inhibition, MTT, 72 h. The conditions noted are these: Homo sapiens, read-out: half inhibiting concentration (IC50 value) NB4. It is filed as cell-based.
Excerpt: as §2

Data set [20] has as its system H9 (acute lymphoblastic leukemia, ALL). The data set can be described thus: Leukemia cell growth inhibition, MTT, 72 h. Type of data set: cell-based. The conditions noted are these: Homo sapiens, read-out: half inhibiting concentration (IC50 value) H9.
Excerpt: as §2

Data set [21] deals with Jurkat (acute lymphoblastic leukemia, ALL). Nature of the data set: Leukemia cell growth inhibition, MTT, 72 h. It is filed as cell-based, human.
Excerpt: as §2

For data set [22], the system named is K562/adr (drug-resistant chronic myeloid leukemia). Nature of the data set: Leukemia cell growth inhibition, MTT, 72 h. Type of data set: cell-based, human.
Excerpt: as §2

In data set [23] the test system is K562 leukemia cell line (chronic myeloid leukemia, CML). The data set can be described thus: Leukemia cell growth inhibition, MTT, 72 h. Type of data set: cell-based, human.
Excerpt: as §2

Data set [24] deals with CaM (Homo sapiens, UniProt P0DP23). Particulars: higher than that of berbamine; cited from earlier work.
Data set [25] relates to red cell membrane CaM-independent Ca2++Mg2+ ATPase. The conditions noted are these: stronger than that of berbamine; cited from earlier work.

Turning to `COc1cc2c3cc1Oc1c(OC)c(OC)cc4c1[C@@H](Cc1ccc(O)c(c1)Oc1ccc(cc1)C[C@@H]3N(C)CC2)N(C)CC4` [BBM, 6,6′,7-trimethoxy-2,2′-dimethylberbaman-12-ol], the IC50 in [1] (Homo sapiens, MGC-803, 72 hours, MTT, read-out: half inhibiting concentration (IC50 value) MGC803) amounted to 4.96 µg/mL (≈ 8.15 µM); in [2], 1.1 µg/mL (≈ 1.81 µM); in data set [3] it was 3.7 µg/mL (≈ 6.08 µM); in data set [4], 5.84 µg/mL (≈ 9.59 µM); in [5], 5.04 µg/mL (≈ 8.28 µM); in [6] it was 7.31 µg/mL (≈ 12 µM). For the same compound, the IC50 in data set [7] (Homo sapiens, SW480, 72 hours, MTT, read-out: half inhibiting concentration (IC50 value) SW480) came to 5.74 µg/mL (≈ 9.43 µM); in data set [8] (Homo sapiens, HepG2, 72 hours, MTT, read-out: half inhibiting concentration (IC50 value) Hepg2), 6.67 µg/mL (≈ 11 µM); in data set [9] it was 12.7 µg/mL (≈ 20.9 µM); in data set [10] (Homo sapiens, A549, 72 hours, MTT, read-out: half inhibiting concentration (IC50 value) A549) it was 5.38 µg/mL (≈ 8.84 µM); in data set [11], 7.63 µg/mL (≈ 12.5 µM); in data set [12], 2.34 µg/mL (≈ 3.84 µM). The IC50 in [13] (Homo sapiens, MCF7, 72 hours, MTT, read-out: half inhibiting concentration (IC50 value) MCF-7) stood at 20.6 µg/mL (≈ 33.8 µM); in data set [14] (Homo sapiens, MG-63, 72 hours, MTT, read-out: half inhibiting concentration (IC50 value) MG63), 9.18 µg/mL (≈ 15.1 µM); in data set [16] (Homo sapiens, RPMI-8226, 72 hours, MTT, read-out: half inhibiting concentration (IC50 value) RPMI 8226), 1.17 µg/mL (≈ 1.92 µM); in [18], 1.3 µg/mL (≈ 2.14 µM); in [19], 3 µg/mL (≈ 4.93 µM); in data set [20] it was 5.04 µg/mL (≈ 8.28 µM). Further, the IC50 in [21] (Homo sapiens, Jurkat, 72 hours, MTT, read-out: half inhibiting concentration (IC50 value) Jurkat) turned out to be 1.9 µg/mL (≈ 3.12 µM); in data set [22] (Homo sapiens, K562/Adr, 72 hours, MTT, read-out: half inhibiting concentration (IC50 value) K562adr), 3.53 µg/mL (≈ 5.8 µM); in [23] (Homo sapiens, K562, 72 hours, MTT, read-out: half inhibiting concentration (IC50 value) K562), 3 µg/mL (≈ 4.93 µM). Moreover, the “cytotoxicity on normal human peripheral blood leucocytes” value in data set [15] is reported as “no obvious cytotoxicity”. Further, the cell viability rate in [17] (drug concentration 0.5 ug/mL) is recorded as 93.69%; in data set [17] (drug concentration 10 ug/mL) it was 14.85%.

Turning to `COc1cc2c3cc1Oc1c(OC)c(OC)cc4c1C(Cc1ccc(OCCCNc5ncc(C(=O)Nc6c(C)cccc6Cl)s5)c(c1)Oc1ccc(cc1)CC3N(C)CC2)N(C)CC4` (stereo not drawn) [Compound (2), 12-O-(3-(5-(2-chloro-6-methyl-phenyl-carbamoyl)-thiazol-2-amino)-propyl)-berbamine], the “improvement of anti-MG63 (osteosarcoma) cell activity compared with berbamine” value in [14] (vs berbamine) is given as “more than 12 fold”.

Take `COc1cccc(NC(=O)c2sc(NCCCOc3ccc4cc3Oc3ccc(cc3)CC3c5cc(c(OC)cc5CCN3C)Oc3c(OC)c(OC)cc5c3C(C4)N(C)CC5)nc2C)c1` (stereo not drawn) [Compound (3), 12-O-(3-(5-(3-methoxy-phenyl-carbamoyl)-4-methyl-thiazol-2-amino)-propyl)-Berbamine]: the “improvement of anti-K562 activity compared with berbamine (second mention, K562/adr meant)” value in [22] (vs berbamine) is recorded as 8 fold. Besides, the “improvement of anti-K562 activity compared with berbamine” value in [23] (vs berbamine) was found to be 8 fold.

As for `COc1cccc(NC(=O)c2cnc(NCCCOc3ccc4cc3Oc3ccc(cc3)CC3c5cc(c(OC)cc5CCN3C)Oc3c(OC)c(OC)cc5c3C(C4)N(C)CC5)cn2)c1` (stereo not drawn) [Compound (4), 12-O-(3-(5-(3-methoxy-phenyl-carbamoyl)-pyrazin-2-amino)-propyl)-berbamine], the “improvement of anti-MGC 803 cell activity compared with berbamine” value in data set [1] (vs berbamine) is “more than 8 fold”. Moreover, the “improvement of anti-SW480 cell activity compared with berbamine” value in data set [7] (vs berbamine) is on record as “more than 6 fold”. Moreover, the “improvement of anti-HepG2 cell activity compared with berbamine” value in data set [8] (vs berbamine) is recorded as “about 9 fold”. Further, the “improvement of anti-MCP-7 (breast cancer) cell activity compared with berbamine” value in [13] (vs berbamine) was “more than 26 fold”. The “improvement of anti-RPMI8226 (multiple myeloma) cell line activity compared with berbamine” value in data set [16] (vs berbamine) is “more than 117 fold”. Besides, in data set [21] (vs berbamine), the “improvement of anti-Jurkat acute lymphoblastic leukemia activity compared with berbamine” value was “more than 13 fold”.

For the compound `COc1cccc(NC(=O)c2ccc(NCCCOc3ccc4cc3Oc3ccc(cc3)CC3c5cc(c(OC)cc5CCN3C)Oc3c(OC)c(OC)cc5c3C(C4)N(C)CC5)nc2)c1` (stereo not drawn) [Compound (6), 12-O-(3-(5-(3-methoxy-phenyl-carbamoyl)-pyridin-2-amino)-propyl)-berbamine], the “improvement of anti-A549 (human lung cancer) cell activity compared with berbamine” value in data set [10] (vs berbamine) is on record as “more than 14 fold”.

As for `CCOCCCCOc1ccc2cc1Oc1ccc(cc1)C[C@H]1c3cc(c(OC)cc3CCN1C)Oc1c(OC)c(OC)cc3c1[C@@H](C2)N(C)CC3` [EBB, [O-(4-ethoxy)-butyl]-berbamine], the “specific coefficient as CaM antagonist relative to berbamine” value in data set [24] was 6.5 times.

For O-Dansyl berbamine [DB], the “inhibitory activity on red cell membrane CaM-independent Ca2++Mg2+ ATPase relative to berbamine” value in data set [25] is 25 times.
